# Measured values from patent publication US6670353B2, “Oxime-group containing oestrone sulphatase inhibitors” (Sterix Limited, priority 1997, dated 2003).
# Assays:
# E1-STS enzyme = molecular target: T1, E1-STS enzyme (Homo sapiens, UniProt P08842); details: cited from earlier work
# T1 sequence (P08842 22-583): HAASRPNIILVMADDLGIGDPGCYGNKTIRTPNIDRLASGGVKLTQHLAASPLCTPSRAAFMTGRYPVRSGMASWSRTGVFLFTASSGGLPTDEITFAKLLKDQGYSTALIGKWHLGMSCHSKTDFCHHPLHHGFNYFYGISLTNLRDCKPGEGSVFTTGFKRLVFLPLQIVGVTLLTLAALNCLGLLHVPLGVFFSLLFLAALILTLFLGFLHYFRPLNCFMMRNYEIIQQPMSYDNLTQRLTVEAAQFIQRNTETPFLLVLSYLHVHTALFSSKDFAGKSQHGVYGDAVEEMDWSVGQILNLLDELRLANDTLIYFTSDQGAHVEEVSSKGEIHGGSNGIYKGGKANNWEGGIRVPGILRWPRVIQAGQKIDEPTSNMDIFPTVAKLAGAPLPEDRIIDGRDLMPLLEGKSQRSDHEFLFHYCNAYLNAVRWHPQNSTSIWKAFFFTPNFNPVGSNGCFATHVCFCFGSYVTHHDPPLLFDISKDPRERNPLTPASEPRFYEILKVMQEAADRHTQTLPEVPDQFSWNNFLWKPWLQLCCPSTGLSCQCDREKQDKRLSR
# [1] = cited from earlier work
# [2] = molecular target: T2, Steroid sulphatase (Steryl Sulphatase EC 3.1.6.2) (Homo sapiens, UniProt P08842); test: Inhibition of steroid sulphatase activity in intact MCF-7 cells; format: cell-based; details: MCF7, read-out: % INHIBITION (mean ± S.D., n = 3) MCF-7 cells
# T2 construct: endogenous in cells; host or cells: MCF-7 human breast cancer cells
# T2 sequence (P08842 22-583): T1 sequence (P08842 22-583)
# Method: (§1) In the examples reference is made to steroid sulphatase inhibition. This is determined according to the teachings of PCT/GB92/01587 wherein the ability of compounds to inhibit oestrone sulphatase activity is assessed using either intact MCF-7 breast cancer cells or placental microsomes. For ease of reference, those teachings are repeated here as Example 1.
# Steroid sulphatase (Steroid sulphatase is defined as: Steryl Sulphatase EC 3.1.6.2.) activity was measured in vitro using intact MCF-7 human breast cancer cells. This hormone dependent cell line is widely used to study the control of human breast cancer cell growth. […] Cells were maintained in Minimal Essential Medium (MEM) (Flow Laboratories, Irvine, Scotland) containing 20 mM HEPES, 5% foetal bovine serum, 2 mM glutamine, non-essential amino acids and 0.075% sodium bicarbonate. Up to 30 replicate 25 cm^2 tissue culture flasks were seeded with approximately 1×10^5 cells/flask using the above medium. Cells were grown to 80% confluency and medium was changed every third day.
# Intact monolayers of MCF-7 cells in triplicate 25 cm^2 tissue culture flasks were washed with Earle's Balanced Salt Solution (EBSS from ICN Flow, High Wycombe, U.K.) and incubated for 3-4 hours at 37° C. with 5 pmol (7×10^5 dpm) [6,7-^3H]oestrone-3-sulphate (specific activity 60 Ci/mmol from New England Nuclear, Boston, Mass., U.S.A.) in serum-free MEM (2.5 ml) together with oestrone-3-sulphamate (11 concentrations: 0; 1 fM; 0.01 pM; 0.1 pM; 1 pM; 0.01 nM; 0.1 nM; 1 nM; 0.01 mM; 0.1 mM; 1 mM). […] A portion (2 ml) of the organic phase was removed, evaporated and the ^3H and ^14C content of the residue determined by scintillation spectrometry. The mass of oestrone-3-sulphate hydrolysed was calculated from the ^3H counts obtained (corrected for the volumes of the medium and organic phase used, and for recovery of [^14C]oestrone added) and the specific activity of the substrate. […] The number of cell nuclei per flask was determined using a Coulter Counter after treating the cell monolayers with Zaponin. […]
# [3] = molecular target: T3, Steroid sulphatase (oestrone sulphatase) (Homo sapiens, UniProt P08842); test: Inhibition of steroid sulphatase activity in placental microsomes; format: biochemical; details: read-out: % INHIBITION (mean ± S.D., n = 3) PLACENTAL MICROSOMES
# T3 construct: Sulphatase-positive human placenta from normal term pregnancies; from tissue; host or cells: human term placenta (2000 g supernatant / microsomes)
# T3 sequence (P08842 22-583): T1 sequence (P08842 22-583)
# Method: as §1
# Sulphatase-positive human placenta from normal term pregnancies (Obstetric Ward, St. Mary's Hospital, London) were thoroughly minced with scissors and washed once with cold phosphate buffer (pH 7.4, 50 mM) then re-suspended in cold phosphate buffer (5 ml/g tissue). Homogenisation was accomplished with an Ultra-Turrax homogeniser, using three 10 second bursts separated by 2 minute cooling periods in ice. Nuclei and cell debris were removed by centrifuging (4° C.) at 2000 g for 30 minutes and portions (2 ml) of the supernatant were stored at −20° C. The protein concentration of the supernatants was determined by the method of Bradford (Anal. Biochem., 72, 248-254 (1976)).
# Incubations (1 ml) were carried out using a protein concentration of […], substrate concentration of […] [6,7-^3H]oestrone-3-sulphate (specific activity 60 Ci/mmol from New England Nuclear, Boston, Mass., U.S.A.) and an incubation time of 20 minutes at 37° C. Eight concentrations of the compounds to be tested may be employed: 0 (i.e. control); 0.05 mM; 0.1 mM; 0.2 mM; 0.4 mM; 0.6 mM; 0.8 mM; 1.0 mM. After incubation each sample was cooled and the medium (1 ml) was pipetted into separate tubes containing [^14C]oestrone (7×10^3 dpm) (specific activity 97 Ci/mmol from Amersham International Radiochemical Centre, Amersham, U.K.). The mixture was shaken thoroughly for 30 seconds with toluene (5 ml). […] A portion (2 ml) of the organic phase was removed, evaporated and the ^3H and ^14C content of the residue determined by scintillation spectrometry. The mass of oestrone-3-sulphate hydrolysed was calculated from the ^3H counts obtained (corrected for the volumes of the medium and organic phase used, and for recovery of [^14C]oestrone added) and the specific activity of the substrate.
# Rat Liver Sulphatase = molecular target: T4, Rat Liver Sulphatase (Rattus norvegicus, UniProt P15589); test: In vivo inhibition (rat liver sulphatase); details: 2 mg/kg/d×5 ol, ORAL DOSE
# T4 construct: from tissue; host or cells: rat liver after oral dosing
# T4 sequence (P15589 20-577): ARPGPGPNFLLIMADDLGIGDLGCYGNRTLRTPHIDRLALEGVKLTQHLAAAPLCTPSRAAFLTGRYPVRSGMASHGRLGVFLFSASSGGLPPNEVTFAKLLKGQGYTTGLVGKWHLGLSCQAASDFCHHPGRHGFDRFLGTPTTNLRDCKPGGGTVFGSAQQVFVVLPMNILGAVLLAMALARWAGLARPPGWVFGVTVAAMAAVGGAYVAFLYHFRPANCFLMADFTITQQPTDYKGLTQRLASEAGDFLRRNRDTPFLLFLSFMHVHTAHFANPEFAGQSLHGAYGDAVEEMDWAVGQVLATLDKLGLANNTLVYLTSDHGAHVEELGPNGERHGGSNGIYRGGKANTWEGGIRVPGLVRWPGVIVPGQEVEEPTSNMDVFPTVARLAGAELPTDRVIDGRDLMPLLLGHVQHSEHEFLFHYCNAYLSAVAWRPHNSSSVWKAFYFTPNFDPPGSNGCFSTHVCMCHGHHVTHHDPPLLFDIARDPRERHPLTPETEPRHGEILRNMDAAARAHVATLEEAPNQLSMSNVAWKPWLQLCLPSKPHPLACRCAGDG
# Method: In Vivo Inhibition (Rat Liver Sulphatase)
# 99.2±0.42%. @ 2 mg/kg/d×5 ol, ORAL DOSE.
# uterine growth = test: Measurement of estrogenic activity (uterine weight); format: in vivo; details: rats, oral, such as 0.1 mg/Kg/day for five days; uterine weight/whole body weight×100
# Method: Compounds according to the present invention such as Compound 2 (such as at levels of 0.1 mg/Kg/day for five days) are administered orally to rats with another group of animals receiving vehicle only (propylene glycol). At the end of the study uteri are obtained and weighed with the results being expressed as uterine weight/whole body weight×100.
# [4] = molecular target: T2, Steroid sulphatase (Steryl Sulphatase EC 3.1.6.2); details: 0.1 μM; cited from earlier work
# rat liver E1-STS = molecular target: T5, rat liver E1-STS (Rattus norvegicus, UniProt P15589); details: administered either orally or subcutaneously; cited from earlier work
# T5 construct: host or cells: rat liver (in vivo)
# T5 sequence (P15589 20-577): T4 sequence (P15589 20-577)
# rat liver DHA-STS = molecular target: T6, rat liver DHA-STS (Rattus norvegicus, UniProt P15589); details: administered either orally or subcutaneously; cited from earlier work
# T6 construct: host or cells: rat liver (in vivo)
# T6 sequence (P15589 20-577): T4 sequence (P15589 20-577)
# memory = details: rats; cited from earlier work
compound,measurement,setting,value
oestrone-3-S-sulphamate,mode of inhibition of the E1-STS enzyme,E1-STS enzyme,weaker non-time-dependent inactivators
"C[C@]12CC[C@@H]3c4ccc(OS(=O)(=O)O)cc4CC[C@H]3[C@@H]1CCC2=O [Compound E1S, oestrone sulphate]",half-life in blood,[1],10 to 12 h
"C[C@]12CCC3c4ccc(OS(N)(=O)=O)cc4CCC3C1CCC2=NO (stereo partly shown) [Compound 2, Oestrone Oxime-3-O-sulphamate]",inhibition at 0.1 µM,[2]; inhibitor concentration 0.1 μM,96 ± 1.8%
same,inhibition at 1 µM,[2]; inhibitor concentration 1 μM,98 ± 0.6%
same,inhibition at 10 µM,[2]; inhibitor concentration 10 μM,99 ± 0.2%
same,inhibition at 0.0001 µM,[3]; inhibitor concentration 0.1 nM,2.9 ± 1.1%
same,inhibition at 0.001 µM,[3]; inhibitor concentration 1 nM,8 ± 3.3%
same,inhibition at 0.01 µM,[3]; inhibitor concentration 10 nM,19.3 ± 2.4%
same,inhibition at 0.1 µM,[3]; inhibitor concentration 0.1 μM,52.3 ± 0.1%
same,inhibition at 1 µM,[3]; inhibitor concentration 1 μM,89.8 ± 0.2%
same,inhibition at 10 µM,[3]; inhibitor concentration 10 μM,98.7 ± 0.1%
same,In vivo inhibition (rat liver sulphatase),Rat Liver Sulphatase,99.2±0.42%
same,Estrogenic activity: effect on uterine growth,uterine growth,has an effect on uterine growth
"CC12CCC3c4ccc(OS(N)(=O)=O)cc4CCC3C1CCC2=O (stereo not shown) [EMATE, oestrone-3-sulphamate]",inhibition of E1-STS activity in intact MCF-7 cells,[4],more than 99%
same,inhibition of rat liver E1-STS activity,rat liver E1-STS,99%
same,inhibition of rat liver DHA-STS activity,rat liver DHA-STS,99%
same,memory enhancing effect,memory,memory enhancing effect
same,mode of inhibition of the E1-STS enzyme,E1-STS enzyme,time- and concentration-dependent manner
oestrone-3-N-sulphamate,mode of inhibition of the E1-STS enzyme,E1-STS enzyme,weaker non-time-dependent inactivators
